Assay results reported in patent US12084416B2, “Substituted sulfonylurea derivatives” (Zydus Lifesciences Limited, priority 2019, dated 2024).

Experiments:
IL-1β [1] = assay: In-vitro IL-1β inhibition assay in PMA-differentiated, LPS-primed, ATP-stimulated THP1 cells; type: cell-based; conditions: Homo sapiens, THP-1; THP1 monocytes differentiated with PMA, primed with 500 ng/mL LPS, compound 30 min, 5 mM ATP 1 hr; IL-1β in supernatant; read-out: IC50 (nM), invitro IL-1β inhibitory activity
Description: THP1 monocytes were differentiated with PMA (100 ng/mL) and incubated at 37 deg C. for 20 hrs in presence of 5% CO2. 2×10^5 differentiated cells were plated per well of 96 well tissue culture plates. The cells were primed using 500 ng/mL Lipopolysaccharide and incubating for 4 h under the same condition. The cells were then treated with various concentrations of the compounds for 30 min followed by treatment with 5 mM ATP for 1 hr. The supernatants were collected and analyzed by IL-1b (Mabtech Cat #3415-1H-20) or TNF-α (Mabtech; Cat #3510-1H-20) detection kit. The data were analyzed using GraphPad Prism V7.0. Dose Response Curve (DRC) was constructed to determine the IC50 value by fitting percentage […] data to the GraphPad Prism using nonlinear regression analysis.

IL-1β [2] = assay: In-vivo LPS and ATP induced IL-1β assay; conditions: Mus musculus, 2.5 h; Dose 10 mpk, po; female C57 mice; serum IL-1β by ELISA; read-out: % IL-1β inhibition in LPS + ATP challenged C57 mice
Description: All the animal experiments were carried out in female rats and mice, bred in-house. Animals were housed in groups of 6 animals per cage, for a week, in order to habituate them to vivarium conditions (25 f 4° C., 60-65% relative humidity, 12:12 h light:dark cycle, with lights on at 7.30 am). All the animal experiments were carried out according to the internationally valid guidelines following approval by the ‘Zydus Research Center animal ethical committee’.
Female C57 mice (6-8 weeks) received intraperitoneal injection of 50 μg/mouse of lipopolysaccharide (LPS) in PBS. Animals were treated immediately with the test compounds or the vehicle. After 2 h of LPS injection, animals were administered with ATP at 12.5 mg/mouse dissolved in PBS via intraperitoneal route. After 30 minutes of ATP injection, serum was collected for IL-1β estimation by ELISA.

IC50 (IL-1β [1]) [nM] | SMILES | inhibition in vivo at 10 mg/kg (IL-1β [2]) [%]
7.4 | CCCN1CCC[C@@H]1/C=C/S(=O)(=O)NC(=O)Nc1c2c(cc3c1CCC3)CCC2 [Example 4, (R,E)-N-((1,2,3,5,6,7-hexahydro-s-indacen-4-yl)carbamoyl)-2-(1-propylpyrrolidin-2-yl)ethene-1-sulfonamide] | 90
– | CN1CCC[C@H]1/C=C/S(=O)(=O)NC(=O)Nc1cc2c(c3c1CCC3)CCC2 [Example 102, (E)-N-((1,2,3,6,7,8-hexahydro-as-indacen-4-yl)carbamoyl)-2-(1-methylpyrrolidin-2-yl)ethene-1-sulfonamide] | 74
– | O=C(Nc1c2c(cc3c1CCC3)CCC2)NS(=O)(=O)/C=C/C1CCCO1 (stereo not shown) [Example 73, (E)-N-((1,2,3,5,6,7-hexahydro-s-indacen-4-yl)carbamoyl)-2-(tetrahydrofuran-2-yl)ethene-1-sulfonamide] | 80
– | CC(C)N1CCC[C@@H]1/C=C/S(=O)(=O)NC(=O)Nc1c2c(cc3c1CCC3)CCC2 [Example 22, (R,E)-N-((1,2,3,5,6,7-hexahydro-s-indacen-4-yl)carbamoyl)-2-(1-isopropylpyrrolidin-2-yl)ethene-1-sulfonamide] | 83
– | O=C(Nc1c2c(cc3c1CCC3)CCC2)NS(=O)(=O)/C=C/[C@H]1CCCN1CC1CC1 [Example 5, (R,E)-2-(1-(cyclopropylmethyl)pyrrolidin-2-yl)-N-((1,2,3,5,6,7-hexahydro-s-indacen-4-yl)carbamoyl)ethene-1-sulfonamide] | 70
– | CC(=O)N1CCC[C@H]1/C=C/S(=O)(=O)NC(=O)Nc1c2c(cc3c1CCC3)CCC2 [Example 69, (S,E)-2-(1-acetylpyrrolidin-2-yl)-N-((1,2,3,5,6,7-hexahydro-s-indacen-4-yl)carbamoyl)-ethenesulfonamide] | 84
